Measured values as given in PMC8776995 (Frontiers in Chemistry, 2022).
Several values for one entry are separate records, joined by “and”; a condition that tells them apart may be missing. Equal entries are not always repeated. Where two headings read alike, the source gives them in different places. One block for each compound: values may come before it.

What was measured:
[1] = system: PC-9 cells; assay: CCK-8 antiproliferation assay, PC-9; conditions: for IC50: PC-9, 48 h, read-out: IC50 (μM) PC-9; for Inhibitory efficacy: single repeats (Repeat 1-3), given as fraction
Procedure: (§1) The compounds were dissolved in DMSO to make a 20 μM stock solution and diluted to the concentration of working solutions with complete growth medium before administration.
(§2) Cells were seeded in 96-well plates: 3,000–5,000 cells/well in 100 ul. One day after seeding, the test compounds at concentration between 1.0 and 16.0 μ M or 0.1% DMSO (as control) were added to cells in triplicate. 48 h later, CCK-8 was added and incubated the plate for 1–4 h in the incubator. The absorbance at 450 nm were measured using a microplate reader (Bio-Tek).

[2] = system: A549 cells; assay: CCK-8 antiproliferation assay, A549; conditions: for Inhibitory efficacy: A549 cells
[3] = system: H1975 cells; assay: CCK-8 antiproliferation assay, H1975; conditions: for Inhibitory efficacy: H1975 cells; for IC50: NCI-H1975, 48 h
[4] = system: H460 cells; assay: CCK-8 antiproliferation assay, H460; conditions: for Inhibitory efficacy: H460 cells; for IC50: NCI-H460, 48 h
Procedure: as §1, §2

[5] = target: wild-type EGFR (Homo sapiens, UniProt P00533); assay: EGFR kinase assay (ELISA); conditions: for A450: raw ELISA absorbance
Procedure: The kinase enzyme of EGFR was purchased from Carna Bioscience (Kobe, Japan). A total of 10 ng/ml anti phosphotyrosine (PY713) antibody (abcam, Cambridge Science Park, United Kingdom) was precoated in 96-well ELISA plates. […] Then, a total of 3 μmol/L ATP was added and the reaction was continued for 2 h. […] After incubation, the wells were washed with PBS and then incubated with horseradish peroxidase (HRP)-conjugated streptavidin. The wells were visualized using 3,3′,5,5′-tetramethylbenzidine (TMB), and chromogenic reaction was ended with 2 mol/L H2SO4, the absorbance was read with a multimode plate reader (PerkinElmer, United States) at 450 nm.

[6] = system: PC-9 xenograft; assay: In vivo antitumor activity, PC-9 xenograft in NSG mice; set-up: species or system mouse
Procedure: The mouse body mass was recorded as well.

[7] = 16uM, given as fraction, Repeat 1-3
[8] = Homo sapiens, A549, read-out: Inhibitory efficacy, A549 cells, 16uM, given as fraction, Repeat 1-3
[9] = 4uM, given as fraction, Repeat 1-3
[10] = 8uM, given as fraction, Repeat 1-3
[11] = Homo sapiens, NCI-H1975, read-out: Inhibitory efficacy, H1975 cells, 4uM, given as fraction, Repeat 1-3
[12] = Homo sapiens, NCI-H1975, read-out: Inhibitory efficacy, H1975 cells, 8uM, given as fraction, Repeat 1-3
[13] = Homo sapiens, NCI-H1975, read-out: Inhibitory efficacy, H1975 cells, 16uM, given as fraction, Repeat 1-3
[14] = 1uM, given as fraction, Repeat 1-3
[15] = 2uM, given as fraction, Repeat 1-3
[16] = Homo sapiens, NCI-H460, read-out: Inhibitory efficacy, H460 cells, 1uM, given as fraction, Repeat 1-3
[17] = Homo sapiens, NCI-H460, read-out: Inhibitory efficacy, H460 cells, 2uM, given as fraction, Repeat 1-3
[18] = Homo sapiens, NCI-H460, read-out: Inhibitory efficacy, H460 cells, 8uM, given as fraction, Repeat 1-3

Sequence of wild-type EGFR (P00533 25-1210): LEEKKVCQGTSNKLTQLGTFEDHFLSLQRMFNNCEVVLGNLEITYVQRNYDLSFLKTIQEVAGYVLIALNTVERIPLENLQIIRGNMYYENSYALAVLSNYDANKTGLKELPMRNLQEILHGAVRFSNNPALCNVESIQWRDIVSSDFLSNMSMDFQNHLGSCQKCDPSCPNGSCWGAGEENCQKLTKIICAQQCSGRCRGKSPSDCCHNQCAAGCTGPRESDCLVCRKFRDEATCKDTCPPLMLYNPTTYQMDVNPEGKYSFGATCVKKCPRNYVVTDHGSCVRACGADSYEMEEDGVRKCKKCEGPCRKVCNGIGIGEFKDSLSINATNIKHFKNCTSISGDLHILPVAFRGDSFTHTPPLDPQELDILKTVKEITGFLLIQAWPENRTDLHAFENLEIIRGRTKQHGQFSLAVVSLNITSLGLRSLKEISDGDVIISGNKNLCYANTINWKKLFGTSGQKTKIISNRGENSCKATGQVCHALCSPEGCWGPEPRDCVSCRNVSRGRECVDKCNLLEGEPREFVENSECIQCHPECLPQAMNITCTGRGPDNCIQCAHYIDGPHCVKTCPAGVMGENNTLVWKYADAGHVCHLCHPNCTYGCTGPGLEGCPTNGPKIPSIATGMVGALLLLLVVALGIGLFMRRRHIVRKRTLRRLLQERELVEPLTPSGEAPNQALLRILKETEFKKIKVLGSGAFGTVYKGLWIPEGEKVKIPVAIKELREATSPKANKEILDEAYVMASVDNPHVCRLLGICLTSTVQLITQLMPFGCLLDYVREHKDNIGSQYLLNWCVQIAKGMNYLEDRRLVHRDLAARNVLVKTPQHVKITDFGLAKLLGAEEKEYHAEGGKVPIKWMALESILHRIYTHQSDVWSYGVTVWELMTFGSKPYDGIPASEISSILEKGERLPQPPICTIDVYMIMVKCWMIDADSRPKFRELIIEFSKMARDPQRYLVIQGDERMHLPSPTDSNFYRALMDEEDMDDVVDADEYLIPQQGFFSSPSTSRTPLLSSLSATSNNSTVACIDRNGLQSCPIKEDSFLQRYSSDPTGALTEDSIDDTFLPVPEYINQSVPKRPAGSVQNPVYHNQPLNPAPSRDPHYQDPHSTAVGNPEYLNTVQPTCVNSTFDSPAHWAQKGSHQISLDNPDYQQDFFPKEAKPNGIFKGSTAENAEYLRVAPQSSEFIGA

melting point: 85 to 88 °C
SMILES: COCCOc1cc2ncnc(Nc3cccc(-c4cn(Cc5cccc(OC)c5)nn4)c3)c2cc1OCCOC [e5]

IC50 ([1]; Homo sapiens): > 100 µM | IC50 ([2]; Homo sapiens, A549, 48 h, read-out: IC50 (μM) A549, CCK-8, 48 h, average ± SD of three independent experiments): > 100 µM | melting point: 94 to 97 °C | IC50 ([3]; Homo sapiens, read-out: IC50 (μM) H1975, CCK-8, 48 h, average ± SD of three independent experiments): 16.8 ± 1.02 µM | IC50 ([4]; Homo sapiens, read-out: IC50 (μM) H460, CCK-8, 48 h, average ± SD of three independent experiments): > 100 µM | IC50 ([5]; IC50 (μM) EGFR, ELISA, 3 μmol/L ATP): 68 µM | inhibition at 100 fM ([5]; concentration 0.0001 nM (reference for normalisation), one value per replicate column): 0% | inhibition at 30 pM ([5]; concentration 0.03 nM, one value per replicate column): 11.8% | Inhibition ([5]; concentration 0.03 nM, one value per replicate column, 3e-05 µM): 14.7465 | inhibition at 0.0003 µM ([5]; concentration 0.3 nM, one value per replicate column): 17.6% | Inhibition ([5]; concentration 0.3 nM, one value per replicate column, 0.0003 µM): 17.0507 | inhibition at 0.003 µM ([5]; concentration 3 nM, one value per replicate column): 19.3% | Inhibition ([5]; concentration 3 nM, one value per replicate column, 0.003 µM): 17.0507 | inhibition at 0.03 µM ([5]; concentration 30 nM, one value per replicate column): 37.4% | Inhibition ([5]; concentration 30 nM, one value per replicate column, 0.03 µM): 28.1106 | inhibition at 0.3 µM ([5]; concentration 300 nM, one value per replicate column): 42.2% | Inhibition ([5]; concentration 300 nM, one value per replicate column, 0.3 µM): 35.4839 | inhibition at 3 µM ([5]; concentration 3000 nM, one value per replicate column): 42.8% | Inhibition ([5]; concentration 3000 nM, one value per replicate column, 3 µM): 36.8664 | inhibition at 30 µM ([5]; concentration 30000 nM, one value per replicate column): 44.9% | Inhibition ([5]; concentration 30000 nM, one value per replicate column, 30 µM): 39.1705 | A450 ([5]; concentration 0.0001 nM): 0.398 and 0.464 | A450 ([5]; concentration 0.03 nM): 0.376 and 0.432 | A450 ([5]; concentration 0.3 nM): 0.365 and 0.427 | A450 ([5]; concentration 3 nM): 0.362 and 0.427 | A450 ([5]; concentration 30 nM): 0.328 and 0.403 | A450 ([5]; concentration 300 nM): 0.319 and 0.387 | A450 ([5]; concentration 3000 nM): 0.318 and 0.384 | A450 ([5]; concentration 30000 nM): 0.314 and 0.379
SMILES: COCCOc1cc2ncnc(Nc3cccc(-c4cn(Cc5ccccc5Br)nn4)c3)c2cc1OCCOC [e3, [6,7-Bis-(2-methoxy-ethoxy)-quinazolin-4-yl]-{3-[1-(2-bromo-benzyl)-1H-[1,2,3]triazol-4-yl]-phenyl}-amine]
Inhibitory efficacy [2, 7]: 0.1506 and 0.2274 | inhibition at 16 µM [2, 8]: 15.2% | Inhibitory efficacy [3, 9]: 0.09844 and 0.1507 | Inhibitory efficacy [3, 10]: 0.1976 and 0.2347 | Inhibitory efficacy [3, 7]: 0.494 and 0.5082 | inhibition at 4 µM [3, 11]: 11.4% | inhibition at 8 µM [3, 12]: 25% | inhibition at 16 µM [3, 13]: 44.1% | Inhibitory efficacy [4, 14]: 0.2775 and 0.3081 | Inhibitory efficacy [4, 15]: 0.3143 and 0.3387 | Inhibitory efficacy [4, 10]: 0.3004 and 0.3491 | inhibition at 1 µM [4, 16]: 30.3% | inhibition at 2 µM [4, 17]: 35% | inhibition at 8 µM [4, 18]: 29%

IC50 ([1]; Homo sapiens): 0.21 ± 0.07 µM | IC50 ([3]; Homo sapiens, read-out: IC50 (μM) H1975): 12.7 ± 2.76 µM | IC50 ([4]; Homo sapiens, read-out: IC50 (μM) H460): 13.3 ± 1.5 µM
SMILES: C#Cc1cccc(Nc2ncnc3cc(OCCOC)c(OCCOC)cc23)c1 [Erlotinib, reference compound]
inhibition at 1 µM ([1]; Homo sapiens, PC-9, read-out: Inhibitory efficacy, PC-9, 1uM, single repeats (Repeat 1-3), given as fraction): 60.2% | inhibition at 2 µM ([1]; Homo sapiens, PC-9, read-out: Inhibitory efficacy, PC-9, 2uM, single repeats (Repeat 1-3), given as fraction): 62.2% | inhibition at 4 µM ([1]; Homo sapiens, PC-9, read-out: Inhibitory efficacy, PC-9, 4uM, single repeats (Repeat 1-3), given as fraction): 73.2% | inhibition at 8 µM ([1]; Homo sapiens, PC-9, read-out: Inhibitory efficacy, PC-9, 8uM, single repeats (Repeat 1-3), given as fraction): 72.2% | inhibition at 16 µM ([1]; Homo sapiens, PC-9, read-out: Inhibitory efficacy, PC-9, 16uM, single repeats (Repeat 1-3), given as fraction): 77.6% | Inhibitory efficacy ([1]; PC-9, 1uM, 1 µM): 0.6098 and 0.6255 | Inhibitory efficacy ([1]; PC-9, 2uM, 2 µM): 0.6294 and 0.6255 | Inhibitory efficacy ([1]; PC-9, 4uM, 4 µM): 0.6922 and 0.7284 | Inhibitory efficacy ([1]; PC-9, 8uM, 8 µM): 0.7167 and 0.7137 | Inhibitory efficacy ([1]; PC-9, 16uM, 16 µM): 0.7578 and 0.7647 | Inhibitory efficacy [2, 14]: 0.1312 and 0.1478 | Inhibitory efficacy [2, 15]: 0.2342 and 0.2336 | Inhibitory efficacy [2, 9]: 0.4482 and 0.3384 | Inhibitory efficacy [2, 10]: 0.471 and 0.4975 | Inhibitory efficacy [2, 7]: 0.5265 and 0.5389 | inhibition at 1 µM ([2]; Homo sapiens, A549, read-out: Inhibitory efficacy, A549 cells, 1uM, given as fraction, Repeat 1-3): 22.3% | inhibition at 2 µM ([2]; Homo sapiens, A549, read-out: Inhibitory efficacy, A549 cells, 2uM, given as fraction, Repeat 1-3): 25.5% | inhibition at 4 µM ([2]; Homo sapiens, A549, read-out: Inhibitory efficacy, A549 cells, 4uM, given as fraction, Repeat 1-3): 39% | inhibition at 8 µM ([2]; Homo sapiens, A549, read-out: Inhibitory efficacy, A549 cells, 8uM, given as fraction, Repeat 1-3): 47.8% | inhibition at 16 µM [2, 8]: 56% | Inhibitory efficacy [3, 15]: 0.1989 and 0.1819 | Inhibitory efficacy [3, 9]: 0.3103 and 0.3631 | Inhibitory efficacy [3, 10]: 0.4556 and 0.4424 | Inhibitory efficacy [3, 7]: 0.4821 and 0.5651 | inhibition at 2 µM ([3]; Homo sapiens, NCI-H1975, read-out: Inhibitory efficacy, H1975 cells, 2uM, given as fraction, Repeat 1-3): 20.1% | inhibition at 4 µM [3, 11]: 30.1% | inhibition at 8 µM [3, 12]: 42.2% | inhibition at 16 µM [3, 13]: 55.9% | Inhibitory efficacy [4, 14]: 0.09689 and 0.1206 | Inhibitory efficacy [4, 15]: 0.2063 and 0.1995 | Inhibitory efficacy [4, 9]: 0.3477 and 0.3746 | Inhibitory efficacy [4, 10]: 0.4407 and 0.5067 | Inhibitory efficacy [4, 7]: 0.4651 and 0.4816 | inhibition at 1 µM [4, 16]: 6.64% | inhibition at 2 µM [4, 17]: 14.3% | inhibition at 4 µM ([4]; Homo sapiens, NCI-H460, read-out: Inhibitory efficacy, H460 cells, 4uM, given as fraction, Repeat 1-3): 30% | inhibition at 8 µM [4, 18]: 47.8% | inhibition at 16 µM ([4]; Homo sapiens, NCI-H460, read-out: Inhibitory efficacy, H460 cells, 16uM, given as fraction, Repeat 1-3): 47.2% | tumor volume mean ([6]; Day13, group mean): 75.6221 mm3 | tumor length ([6]; Day13, individual animals): 5.32 mm and 6.15 mm and 5.63 mm and 5.6 mm and 6.4 mm and 5.64 mm and 7.11 mm | tumor volume ([6]; Day13, individual animals): 68.645 mm3 and 111.069 mm3 and 86.3969 mm3 and 32.368 mm3 and 70.688 mm3 and 54.5952 mm3 and 105.592 mm3 | tumor width ([6]; Day13, individual animals): 5.08 mm and 6.01 mm and 5.54 mm and 3.4 mm and 4.7 mm and 4.4 mm and 5.45 mm | tumor volume mean ([6]; Day15, group mean): 46.9389 mm3 | tumor length ([6]; Day15, individual animals): 5.43 mm and 5.76 mm and 4.04 mm and 4.28 mm and 5.96 mm and 6.09 mm and 6.46 mm | tumor volume ([6]; Day15, individual animals): 23.7877 mm3 and 44.4813 mm3 and 30.5668 mm3 and 38.11 mm3 and 66.1086 mm3 and 70.1568 mm3 and 55.3609 mm3 | tumor width ([6]; Day15, individual animals): 2.96 mm and 3.93 mm and 3.89 mm and 4.22 mm and 4.71 mm and 4.8 mm and 4.14 mm | tumor volume mean ([6]; Day17, group mean): 35.7998 mm3 | tumor length ([6]; Day17, individual animals): 4.34 mm and 4.5 mm and 4.68 mm and 3.6 mm and 3.5 mm and 5.64 mm and 5.39 mm | tumor volume ([6]; Day17, individual animals): 40.4974 mm3 and 44.957 mm3 and 28.665 mm3 and 15.138 mm3 and 14.7175 mm3 and 67.7082 mm3 and 38.9158 mm3 | tumor width ([6]; Day17, individual animals): 4.32 mm and 4.47 mm and 3.5 mm and 2.9 mm and 4.9 mm and 3.8 mm | tumor volume mean ([6]; Day19, group mean): 14.0038 mm3 | tumor length ([6]; Day19, individual animals): 2.66 mm and 3.12 mm and 2.47 mm and 0 mm and 3.83 mm and 4.36 mm and 4.91 mm | tumor volume ([6]; Day19, individual animals): 8.246 mm3 and 6.24 mm3 and 5.446 mm3 and 0 mm3 and 21.1079 mm3 and 22.4629 mm3 and 34.5234 mm3 | tumor width ([6]; Day19, individual animals): 2.49 mm and 2 mm and 2.1 mm and 0 mm and 3.32 mm and 3.21 mm and 3.75 mm
